Source: PubChem BioAssay (NCI)
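Assay format: 96-well plates, 48-hour exposure. GI50: concentration for 50% inhibition of growth. The concentration for full growth arrest is given as TGI.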

Assays:
Experiment in all cases: growth of human tumour cells (NCI), 48 h
SF-268 CNS = tested on: SF-268 CNS
SK-MEL-5 melanoma = tested on: SK-MEL-5 melanoma
SR leukemia = tested on: SR leukemia
U251 CNS = tested on: U251 CNS
UO-31 renal = tested on: UO-31 renal
HCC-2998 colon = tested on: HCC-2998 colon
HOP-92 NSCLC = tested on: HOP-92 NSCLC
RPMI-8226 leukemia = tested on: RPMI-8226 leukemia
SNB-75 CNS = tested on: SNB-75 CNS
HS 578T breast = tested on: HS 578T breast

Row | Compound | TGI (SF-268 CNS) [µM] | TGI (SK-MEL-5 melanoma) [µM] | TGI (SR leukemia) [µM] | TGI (U251 CNS) [µM] | TGI (UO-31 renal) [µM] | TGI (HCC-2998 colon) [µM] | TGI (HOP-92 NSCLC) [µM] | TGI (RPMI-8226 leukemia) [µM] | TGI (SNB-75 CNS) [µM] | TGI (HS 578T breast) [µM] | GI50 (HCC-2998 colon) [µM] | GI50 (HOP-92 NSCLC) [µM] | GI50 (HS 578T breast) [µM] | GI50 (RPMI-8226 leukemia) [µM] | GI50 (SF-268 CNS) [µM] | GI50 (SK-MEL-5 melanoma) [µM] | GI50 (SNB-75 CNS) [µM] | GI50 (U251 CNS) [µM] | GI50 (UO-31 renal) [µM] | GI50 (SR leukemia) [µM]
1 | O=C1c2ccccc2C(=O)N1CC#CCO | > 100 | > 100 | > 100 | > 100 | > 100 |  |  |  |  |  |  |  |  |  |  |  |  |  |  | 
2 | O=C(Nc1ccc(Br)cc1)C(=O)C(C(=O)c1ccc(Cl)c(Cl)c1)C1OC(=O)c2ccccc21 (stereo unspecified) | 21.4 |  | > 100 | 22.8 | 43.2 | 29.2 | 58.4 | > 100 | 65.9 |  |  |  |  |  |  |  |  |  |  | 
3 | CC(C)N1CC2CC(CN(C(=O)c3ccc(Cl)cc3)C2)C1 | > 100 | > 100 |  | > 100 | > 100 |  | > 100 | > 100 | > 100 |  |  |  |  |  |  |  |  |  |  | 
4 | C[C@]12CC[C@H]3[C@@H](CC[C@]4(O)C[C@@H](O)CC[C@]34C=O)[C@@]1(O)CC[C@@H]2C1=CC(=O)OC1 | 2 | 1.16 | > 100 | 2.9 | 2.91 | 7.13 |  |  |  | > 100 |  |  |  |  |  |  |  |  |  | 
5 | Cc1ccc(/C=C2\CCCCC2=O)cc1 | > 100 | > 100 |  | > 100 | > 100 |  |  |  | > 100 |  |  |  |  |  |  |  |  |  |  | 
6 | Nc1ccc(C#Cc2ccccc2C#CCCCCO)cc1 | 40.4 | 38.6 |  | 23.1 | 30.5 | 31.3 | 32.1 | 44.2 | 29.8 | 64.7 | 16.6 | 15.5 | 26.8 | 18.1 | 19.9 | 19.8 | 14.4 | 11.1 | 16.6 | 
7 | COC(=O)C1=C(C)NC(=S)NC1c1ccc(N(CCCl)CCCl)cc1Cl (stereo unspecified) | 98.4 | 20.1 |  | > 100 | > 80.7 |  | > 100 | > 4.64 | > 100 | > 100 |  |  |  |  |  |  |  |  |  | 
8 | Cc1cc(-c2ccccc2)nc(Nc2cc3ccccc3[nH]2)n1 | > 100 | > 100 | > 100 | > 100 | > 100 | > 100 | > 100 | > 100 |  |  |  |  |  |  |  |  |  |  |  | 
9 | CN1C(=O)N(C)C2C1NC(=S)N2/N=C/C=C/c1ccccc1[N+](=O)[O-] (stereo unspecified) | > 100 | > 100 |  |  | > 100 | > 100 | > 100 | > 100 | > 100 | > 100 | 2.56 | 57.7 | 0.646 | 2.74 | 2.67 | 0.753 | 0.319 |  | 3.86 | 
10 | CCCCCCC(=O)NC1=C(N2CC2)C(=O)C(NC(=O)CCCCCC)=C(N2CC2)C1=O | > 100 |  | > 100 | > 100 | > 100 |  |  |  | 43.9 | > 100 |  |  | 3.11 |  | 2.23 |  | 11.7 | 2.88 | 6.15 | 1.06
11 | O=[N+]([O-])c1ccc2c(c1)C(N1CCN(CCO)CC1)Cc1ccc(F)cc1S2 (stereo unspecified) | 31.4 | 3.48 | 20.6 | 24.3 | 18.1 | 8.83 |  |  | 12.4 | 26.1 |  |  |  |  |  |  |  |  |  | 
12 | O=C(Nc1ccc(Br)c2ccccc12)c1ccc2ccccc2c1O | 31.8 | 3.78 | > 100 | 35.2 | 12.9 | 20.9 |  |  | 8.68 | 13.5 |  |  |  |  |  |  |  |  |  | 
13 | C=CCC1(CN(C)C)CC/C(=C\c2ccc3c(c2)OCO3)C1=O (stereo unspecified) | > 100 | 60.5 | > 100 | > 100 | > 100 | > 100 | > 100 | 59.4 | > 100 |  |  |  |  |  |  |  |  |  |  | 
14 | C=CCc1c(O)c(C(=O)/C=C/c2ccc(Cl)cc2)c(OC)c2ccoc12 | 12 | 5.18 | 9.11 | 5.87 | 13.3 | 3.26 | 5.94 |  | 9.11 | 42.4 | 1.79 | 1.69 | 4.02 |  | 3.25 | 2.07 | 2.01 | 2.3 | 2.88 | 2.77
15 | NC(=O)NNC/C(Cl)=C(\Cl)C(=O)O | > 100 | > 100 |  | > 100 | > 100 | > 100 |  | > 100 | > 100 |  |  |  |  |  |  |  |  |  |  | 
16 | Nc1nc2cc(Cl)ccc2n1N | > 100 | > 100 | > 100 | > 100 | > 100 | > 100 |  | > 100 | > 100 | > 100 |  |  |  |  |  |  |  |  |  | 
17 | CC1(c2ccc(F)cc2)C2C(=O)NC(=O)C1C(=O)NC2=O (stereo unspecified) | > 100 | > 100 |  |  | > 100 | > 100 | > 100 | > 100 | > 100 |  |  |  |  |  |  |  |  |  |  | 
18 | COC(=O)CC[C@@H](C)[C@H]1CC[C@H]2[C@@H]3CC[C@@H]4C[C@H](O)CC[C@]4(C)[C@H]3CC[C@]12C | 43.2 | 31 | 52.1 | 43.2 | 34.9 |  | 27.8 | > 100 | 36.1 | 55.8 |  |  |  |  |  |  |  |  |  | 
19 | CC(NNC(=S)N1CCN(c2ccccn2)CC1)c1nccc2ccccc12 (stereo unspecified) | 14.5 | 12.3 |  | 14.3 | 8.34 | 14.7 | 7.79 |  | 18.9 | 61.6 |  |  |  |  |  |  |  |  |  | 
20 | O=C(NC1CCC[C@H]1OC(=O)c1ccccc1)c1ccccc1 (stereo partly specified) | > 100 | > 100 | > 100 | > 100 | > 100 |  | > 100 |  | 98.9 |  |  |  |  |  |  |  |  |  |  | 
21 | COc1nn(C)cc1Nc1nccc(-c2c[nH]c3c(NC(=O)[C@@H](C)N4CCN(C)CC4)cccc23)n1 | > 100 | 36.5 |  | > 100 | > 100 | > 100 | > 100 | > 100 | 40.9 | > 100 | > 100 | 41.7 | 27 | 49.5 | 36 | 18.5 | 16.2 | 43.7 | 20.7 | 
22 | Clc1ccc2c(NC3CCC(N4CCCCC4)CC3)ccnc2c1 (stereo unspecified) | > 100 | 30.6 | 35.5 | 57.1 | 28 | 27.4 | 29.9 | 84 |  | 56.4 |  |  |  |  |  |  |  |  |  | 
